{"source": "patent US20080027131A1", "about": "“USE OF BENZO-FUSED HETEROCYCLE SULFAMIDE DERIVATIVES FOR THE TREATMENT OF OBESITY” (priority 2005, published 2008)", "key": {"AKR/J mice": {"tested_on": "AKR/J mice", "assay": "Obesity In Vivo Assays in diet-induced obese AKR/J mice (Example 14, first study and second dose response study)", "settings": "for Intake of high fat diet (g) Day 0-3 / Intake of high fat diet (g) Day 4-7 / Weight loss (g) Day 4 / Weight loss (g) Day 8 / Weight loss (g) Day 10 / Brown Adipose Tissue / Epididymal fat / Muscle / Retroperitoneal fat / Total intake of high fat diet (g) Day 1-10 / Weight loss (g) Day 7: mean ± SE; for Ratio (fat/muscle): total weights of inguinal fat and retroperitoneal fat/muscle weight", "description": "Compound #8 was suspended in 0.5% Methocel using a hand held homogenizer to reduce the particle size and a magnetic stir bar and stir plate to keep the particles homogeneously suspended throughout the dosing period. 0.5% Hydroxypropyl Methylcellulose (Methocel) used as vehicle/control.\nMale AKR/J mice weighing between 35 to 46 grams were used for weight loss studies. AKR/J mice are susceptible to diet-induced obesity. Male AKR/J mice (average body weight of about 20 grams) at 4 to 5 weeks of age (obtained from Jackson Laboratories, Bar Harbor, Me.) were group housed, five per cage, in a shoebox cage at 21° C. with a 12 h light dark cycle. All of the mice were quarantined for a period of one week before transfer to the animal procedure room. The mice were fed a high fat diet for 8 weeks to induce obesity. The composition of the diet by energy was 45% energy as fat, 20% as protein, and 35% as carbohydrate (obtained from Research Diets, D12451, New Brunswick, N.J.). As a non-obese control, an additional group of mice that were age- and weight-matched was fed with a low fat diet (obtained from Research Diets, D12450B, New Brunswick, N.J.). Only mice that developed obesity, defined as a body weight between 35 and 46 grams, were selected for the weight loss studies. Animals were separated and single housed at least three days prior to the drug treatments to allow acclimation to the new surroundings.\nThe assay comprised two separate studies: In the first study, 10 mice were given vehicle control of 0.5% Methocel; 10 mice were treated with 300 mg/kg Compound #8 in vehicle; and 10 mice were dosed as positive control with 10 mg/kg sibutramine (a weight loss agent) in vehicle. In the second study, 48 mice were allocated into 4 treatment groups of 12 mice each. The four groups were then treated with 0.5% Methocel (vehicle), 10 mg/kg Compound #8, 30 mg/kg Compound #8, and 100 mg/kg Compound #8 in vehicle, respectively.\nThe mice were orally gavaged once daily (at 1500-1700 hour) with vehicle control (0.5% methocel, pH7.4) or vehicle containing Compound #8 for 10 days. The dosing volume was 5 mL/kg body weight (0.2 mL for 40 gram mice). Body weight and food intake of mice were monitored periodically throughout the studies. On Day 11, the mice were fasted for 4 hr during light cycle (food was removed 0600-1000 hour). A necropsy was done 18 hours after last dosing. The mice were anaesthetized with sodium pentobarbital (1 ml/kg, intraperitoneal [i.p.] injection, SleepAway, Fort Dodge, Iowa) and blood was drawn via cardiac puncture using an 1 mL syringe and collected into heparinized tubes. […] Plasma samples were obtained by centrifuging whole blood at 2000˜3000 g for 10˜20 minutes at 4° C. and stored at −20° C. for further measurement of insulin, HDL, LDL, and total cholesterol and triglyceride.\nBlood glucose levels were measured with a glucometer (OneTouch UltraSmart, Lifescan, Milpitas, Calif.) after collecting two microliters of blood through tail puncture. Plasma insulin concentrations were measured by using rat/mouse insulin enzyme-linked immunosorbent assay (ELISA) kit (EZRMI-13K, LINCO Research, St. Charles, Mo.). Blood samples were diluted 1:4 in charcoal stripped mouse serum that was included in the ELISA kit. The rest of the procedure followed the manufacturers instruction. The total fluorescence was detected using an Orion 1 Microplate Luminometer (Berthold Detection Systems, Pforzheim, Germany). Plasma total cholesterol, high density lipoprotein (HDL), low density lipoprotein (LDL) and triglyceride concentrations were measured by using a Bayer ADVIA 1650 blood chemistry analyzer (Bayer HealthCare LLC, Diagnostic Division, Tarrytown, N.Y.). […]"}, "AKR/J Obese Mice": {"tested_on": "AKR/J Obese Mice", "assay": "AKR/J Obese Mice In Vivo Assay (Example 13)", "description": "AKR/J mice are known in the art to be susceptible to diet-induced obesity. (Rossmeisl M, Rim J S, Koza R A, Kozak L P. Diabetes. 2003 August; 52(8):1958-66.)\nMale AKR/J mice (˜20 gram) at 4-5 weeks of age (Jackson Laboratories, Bar Harbor, Me.) were housed individually in a shoe-box cage at 21° C. with a 12-h light-dark cycle. The mice were fed with a high fat diet for 8 weeks to induce obesity. The composition of the diet by energy was 45% energy as fat, 20% as protein, and 35% as carbohydrate (Research Diets, D12451, New Brunswick, N.J.).\nObese mice with body weights between 35 and 46 grams were selected for the studies. Mice were randomized according to body weight into treatment groups at 13 weeks of age. The mice were orally gavaged once daily (0.2 ml at 1500-1700 hour) with vehicle control (0.5% methylcellulose, pH7.4) or vehicle containing Compound #8 (300 mg/kg). The body weights and food intake of the mice were monitored every few days. On day 11, the mice were anaesthetized with sodium pentobarbital (1 ml/kg, i.p, Sleepaway, Fort Dodge, Iowa). White adipose tissue (WAT) (retroperitoneal fat) and skeletal muscle (gastrocnemius and soleus muscle) were dissected and weighed.\nData shown below are expressed as mean and standard error calculated using 9-10 mice per treatment group. The 2 tailed Student's t-Tests were used for statistic analysis. All animal studies complied with the guideline of the Institutional Animal Care and Use Committee."}, "[1]": {"settings": "first study, 300 mg/kg oral gavage once daily"}, "[2]": {"settings": "first study, 300 mg/kg, after 10 days of dosing"}, "[3]": {"settings": "second study, 10 mg/kg oral once daily"}, "[4]": {"settings": "second study, 30 mg/kg oral once daily"}, "[5]": {"settings": "second study, 100 mg/kg oral once daily"}, "[6]": {"settings": "300 mg/kg oral, 10-day treatment"}, "[7]": {"settings": "first study, 10 mg/kg, after 10 days of dosing"}, "[8]": {"settings": "first study, positive control 10 mg/kg"}}, "data": [{"smiles": "NS(=O)(=O)NC[C@H]1COc2cc(Cl)ccc2O1", "note": "[Compound #8, (2S)-(−)-N-(6-Chloro-2,3-dihydro-benzo[1,4]dioxin-2-ylmethyl)-sulfamide]", "values": [{"measurement": "Intake of high fat diet (g) Day 0-3", "setting": "AKR/J mice; [1]", "value": "10.0 ± 0.4", "unit": "g"}, {"measurement": "Intake of high fat diet (g) Day 4-7", "setting": "AKR/J mice; [1]", "value": "10.6 ± 0.4", "unit": "g"}, {"measurement": "Weight loss (g) Day 4", "setting": "AKR/J mice; [1]", "value": "-0.3 ± 0.3", "unit": "g"}, {"measurement": "Weight loss (g) Day 8", "setting": "AKR/J mice; [1]", "value": "-2.5 ± 0.3", "unit": "g"}, {"measurement": "Weight loss (g) Day 10", "setting": "AKR/J mice; [1]", "value": "-3.3 ± 0.3", "unit": "g"}, {"measurement": "weight loss compared with vehicle treated mice (in words)", "setting": "AKR/J mice; [2]", "value": "significant weight loss"}, {"measurement": "white adipose tissue weight compared with vehicle treatment (in words)", "setting": "AKR/J mice; [2]", "value": "reduced white adipose tissue weight"}, {"measurement": "Brown Adipose Tissue", "setting": "AKR/J mice; [2]", "value": "0.22 ± 0.09", "unit": "g"}, {"measurement": "Epididymal fat", "setting": "AKR/J mice; [2]", "value": "1.73 ± 0.10", "unit": "g"}, {"measurement": "Muscle", "setting": "AKR/J mice; [2]", "value": "0.30 ± 0.01", "unit": "g"}, {"measurement": "Retroperitoneal fat", "setting": "AKR/J mice; [2]", "value": "0.47 ± 0.04", "unit": "g"}, {"measurement": "food intake compared to vehicle (in words)", "setting": "AKR/J mice; first study, 300 mg/kg, three days after treatment", "value": "Significant suppression of food intake"}, {"measurement": "Ratio (fat/muscle)", "setting": "AKR/J mice; first study, 300 mg/kg", "value": "7.42 ± 0.54"}, {"measurement": "Total stomach content, measured at the end of the study", "setting": "AKR/J mice; first study, 300 mg/kg, vehicle 0.16±0.02 g, p<0.05", "value": "0.27 ± 0.05", "unit": "g"}, {"measurement": "weight loss or food intake suppression (in words)", "setting": "AKR/J mice; second dose response study, 10, 30, and 100 mg/kg", "value": "no significant (P>0.05) weight loss or food intake suppression"}, {"measurement": "Total intake of high fat diet (g) Day 1-10", "setting": "AKR/J mice; [3]", "value": "28 ± 0.5", "unit": "g"}, {"measurement": "Weight loss (g) Day 4", "setting": "AKR/J mice; [3]", "value": "0.1 ± 0.1", "unit": "g"}, {"measurement": "Weight loss (g) Day 7", "setting": "AKR/J mice; [3]", "value": "0.2 ± 0.2", "unit": "g"}, {"measurement": "Weight loss (g) Day 10", "setting": "AKR/J mice; [3]", "value": "0.3 ± 0.3", "unit": "g"}, {"measurement": "Total intake of high fat diet (g) Day 1-10", "setting": "AKR/J mice; [4]", "value": "28 ± 0.5", "unit": "g"}, {"measurement": "Weight loss (g) Day 4", "setting": "AKR/J mice; [4]", "value": "0.1 ± 0.1", "unit": "g"}, {"measurement": "Weight loss (g) Day 7", "setting": "AKR/J mice; [4]", "value": "0.0 ± 0.2", "unit": "g"}, {"measurement": "Weight loss (g) Day 10", "setting": "AKR/J mice; [4]", "value": "-0.4 ± 0.2", "unit": "g"}, {"measurement": "Total intake of high fat diet (g) Day 1-10", "setting": "AKR/J mice; [5]", "value": "28 ± 0.6", "unit": "g"}, {"measurement": "Weight loss (g) Day 4", "setting": "AKR/J mice; [5]", "value": "0.2 ± 0.1", "unit": "g"}, {"measurement": "Weight loss (g) Day 7", "setting": "AKR/J mice; [5]", "value": "0.2 ± 0.3", "unit": "g"}, {"measurement": "Weight loss (g) Day 10", "setting": "AKR/J mice; [5]", "value": "0.1 ± 0.2", "unit": "g"}, {"measurement": "Weight Loss", "setting": "AKR/J Obese Mice; 300 mg/kg oral gavage once daily, 10-day treatment, mean ± standard error, 9-10 mice", "value": "-3.3 ± 0.34", "unit": "g"}, {"measurement": "Food Intake (g) Day 4-10", "setting": "AKR/J Obese Mice; 300 mg/kg oral gavage once daily, Day 4-10, mean ± standard error", "value": "16.2 ± 0.68", "unit": "g"}, {"measurement": "Retroperitoneal Fat Weight", "setting": "AKR/J Obese Mice; 300 mg/kg oral gavage once daily, dissected day 11, mean ± standard error", "value": "0.47 ± 0.04", "unit": "g"}, {"measurement": "Skeletal Muscle Weight", "setting": "AKR/J Obese Mice; 300 mg/kg oral gavage once daily, gastrocnemius and soleus, day 11, mean ± standard error", "value": "0.30 ± 0.01", "unit": "g"}, {"measurement": "changes in skeletal muscle mass (in words)", "setting": "AKR/J Obese Mice; [6]", "value": "no significant changes"}, {"measurement": "decrease of fat to lean mass ratio (white adipose tissue/skeletal muscle) compared to vehicle treated mice", "setting": "AKR/J Obese Mice; [6]", "value": 16.8, "unit": "%"}, {"measurement": "reduction of retroperitoneal fat relative to vehicle treated mice", "setting": "AKR/J Obese Mice; [6]", "value": 26.6, "unit": "%"}, {"measurement": "fat to lean mass ratio (white adipose tissue/skeletal muscle)", "setting": "AKR/J Obese Mice; 300 mg/kg oral, 10-day treatment, vehicle 8.9±0.4, p<0.05", "value": "7.4±0.5"}, {"measurement": "weight loss compared to vehicle treated mice (in words)", "setting": "AKR/J Obese Mice; 300 mg/kg oral, after 10-day treatment", "value": "greater weight loss"}, {"measurement": "food intake relative to control animals (in words)", "setting": "AKR/J Obese Mice; 300 mg/kg oral, day 4 to day 10", "value": "reduction of food intake"}, {"measurement": "gastric emptying", "setting": "AKR/J Obese Mice; 300 mg/kg oral, p<0.05", "value": "delay gastric emptying at a statistically significant level"}]}, {"smiles": "NS(=O)(=O)NCC1CCc2ccccc2O1", "note": "(stereo not shown)", "values": [{"measurement": "melting point", "value": "100 to 101", "unit": "°C"}]}, {"smiles": "CC(C)CC(N(C)C)C1(c2ccc(Cl)cc2)CCC1", "note": "(stereo not shown) [Sibutramine, sibutramine, reference compound]", "values": [{"measurement": "food intake from day 0 to Day 3 (in words)", "setting": "AKR/J mice; first study, 10 mg/kg", "value": "reduction of food intake"}, {"measurement": "weight after 3 days treatment (in words)", "setting": "AKR/J mice; first study, 10 mg/kg", "value": "lost weight"}, {"measurement": "weight at the end of the study compared to control mice (in words)", "setting": "AKR/J mice; first study, 10 mg/kg", "value": "no difference in weight"}, {"measurement": "Brown Adipose Tissue", "setting": "AKR/J mice; [7]", "value": "0.14 ± 0.01", "unit": "g"}, {"measurement": "Epididymal fat", "setting": "AKR/J mice; [7]", "value": "1.76 ± 0.11", "unit": "g"}, {"measurement": "Muscle", "setting": "AKR/J mice; [7]", "value": "0.31 ± 0.01", "unit": "g"}, {"measurement": "Retroperitoneal fat", "setting": "AKR/J mice; [7]", "value": "0.61 ± 0.07", "unit": "g"}, {"measurement": "Ratio (fat/muscle)", "setting": "AKR/J mice; first study, 10 mg/kg", "value": "7.67 ± 0.59"}, {"measurement": "Intake of high fat diet (g) Day 0-3", "setting": "AKR/J mice; [8]", "value": "6.5 ± 0.3", "unit": "g"}, {"measurement": "Intake of high fat diet (g) Day 4-7", "setting": "AKR/J mice; [8]", "value": "14.4 ± 0.7", "unit": "g"}, {"measurement": "Weight loss (g) Day 4", "setting": "AKR/J mice; [8]", "value": "-2.0 ± 0.2", "unit": "g"}, {"measurement": "Weight loss (g) Day 8", "setting": "AKR/J mice; [8]", "value": "-1.2 ± 0.4", "unit": "g"}, {"measurement": "Weight loss (g) Day 10", "setting": "AKR/J mice; [8]", "value": "-1.2 ± 0.5", "unit": "g"}]}]}
